From patent US7495027B2, “3-aryl-4-hydroxyfuranone compounds and the human and animal health use thereof” (Wyeth, priority 2003, dated 2009)

Key:
[1] = test system: C. elegans; assay: Efficacy against nematodes (C. elegans motility rating); design: key: 0: no effect; 7: reduced movement in 24 h; 8: dead in 24 h; 9: dead in 4 h; conditions: observations at 4 h and 24 h postimmersion
Outline: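 Mixed-stage C. elegans (~50 per well, L1 to adult) in M9 buffer exposed to test compound at 100 ppm, 150 ppm or 200 μM final. Motility of larvae and adults scored under dissecting microscope at 4 h and 24 h.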

[2] = test system: Trichostrongylus columbriformis; assay: In vivo efficacy against T. colubriformis in infected gerbils; conditions: gerbils infected with T. colubriformis; single oral dose of 50 mg/kg by gavage; worm counts four days post-treatment; % mortality as compared to negative control
Method: In Vivo Evaluation of the Efficacy of Test Compounds Against T. colubriformis
In this evaluation, gerbils are infected with Trichostrongylus columbriformis infective larvae at a concentration of approximately 800 L3/mL. Larvae for gerbil infections are cultured from feces from sheep previously infected with T. colubriformis. One week post infection, test compounds are administered by gavage as a single oral dose of 50 mg/kg of body weight. For each group of 3 gerbils, 10 mg of test compound are dissolved in 2 mL of PEG 400:DMSO (1:2 v/v) and each animal is administered the test solution at a rate of 0.1 mL/10 g of body weight. […] All animals are observed daily for morbidity and mortality. Four days post-treatment, all animals are weighed and necropsied. Worm counts are conducted with the use of stereoscopes and counters.

SMILES	Rating ([1]; dose 100 ppm)	Mortality [2] [%]	Rating ([1]; dose 150 ppm)
O=C1OC(=Cc2ccc(F)cc2)C(O)=C1c1cccc(C(F)(F)F)c1 (mixture of isomers) [R=H; R1=3-CF3—C6H4**; R2=4-F—C6H4]	9	36.40	
N#Cc1cccc(C2=C(O)C(=Cc3ccc(C(F)(F)F)cc3)OC2=O)c1 (mixture of isomers) [R=H; R1=3-CN—C6H4**; R2=4-CF3—C6H4]	9	0.00	
N#Cc1ccc(C=C2OC(=O)C(c3cccc(C#N)c3)=C2O)cc1 (mixture of isomers) [R=H; R1=3-CN—C6H4**; R2=4-CN—C6H4]	9	25.50	
N#Cc1cccc(C2=C(O)C(=Cc3ccc(Cl)cc3)OC2=O)c1 (mixture of isomers) [R=H; R1=3-CN—C6H4**; R2=4-Cl—C6H4]	9	0.00	
N#Cc1cccc(C2=C(O)C(=Cc3ccc(F)cc3)OC2=O)c1 (mixture of isomers) [R=H; R1=3-CN—C6H4**; R2=4-F—C6H4]	7	0.00	
O=C1OC(=Cc2ccc(C(F)(F)F)cc2)C(O)=C1c1cccc(Cl)c1 (mixture of isomers) [R=H; R1=3-Cl—C6H4**; R2=4-CF3—C6H4]	9	57.90	
N#Cc1ccc(C=C2OC(=O)C(c3cccc(Cl)c3)=C2O)cc1 (mixture of isomers) [R=H; R1=3-Cl—C6H4**; R2=4-CN—C6H4]	9	43.70	
O=C1OC(=Cc2ccc(Cl)cc2)C(O)=C1c1cccc(Cl)c1 (mixture of isomers) [R=H; R1=3-Cl—C6H4**; R2=4-Cl—C6H4]	9	18.80	
O=C1OC(=Cc2ccc(F)cc2)C(O)=C1c1cccc(Cl)c1 (mixture of isomers) [R=H; R1=3-Cl—C6H4**; R2=4-F—C6H4]	9	3.00	
N#Cc1ccc(C2=C(O)C(=Cc3cccc(C(F)(F)F)c3)OC2=O)cc1 (mixture of isomers) [R=H; R1=4-CN—C6H4**; R2=3-CF3—C6H4]	9	50.00	
N#Cc1ccc(C2=C(O)C(=Cc3ccc(F)cc3)OC2=O)cc1 (mixture of isomers) [R=H; R1=4-CN—C6H4**; R2=4-F—C6H4]	9	82.10	
N#Cc1ccc(C2=C(O)C(=Cc3ccc(OC(F)(F)C(F)F)cc3)OC2=O)cc1 (mixture of isomers) [R=H; R1=4-CN—C6H4**; R2=4-OCF2CHF2—C6H4]	9	92.80	
N#Cc1ccc(C2=C(O)C(=Cc3ccc(OC(F)F)cc3)OC2=O)cc1 (mixture of isomers) [R=H; R1=4-CN—C6H4**; R2=4-OCHF2—C6H4]	9	48.40	
O=C1OC(=Cc2ccc(Cl)cc2Cl)C(O)=C1c1ccc(Cl)cc1 (mixture of isomers) [R=H; R1=4-Cl—C6H4**; R2=2,4-diCl—C6H4]	9	91.40	
O=C1OC(=Cc2ccc(Cl)c(Cl)c2)C(O)=C1c1ccc(Cl)cc1 (mixture of isomers) [R=H; R1=4-Cl—C6H4**; R2=3,4-diCl—C6H4]	9	58.0	
O=C1OC(=Cc2ccc(C(F)(F)F)cc2)C(O)=C1c1ccc(F)cc1 (mixture of isomers) [R=H; R1=4-F—C6H4**; R2=4-CF3—C6H4]	9	25.60	
N#Cc1ccc(C=C2OC(=O)C(c3ccc(F)cc3)=C2O)cc1 (mixture of isomers) [R=H; R1=4-F—C6H4**; R2=4-CN—C6H4]	9	14.70	
O=C1OC(=Cc2ccc(Cl)cc2)C(O)=C1c1ccc(F)cc1 (mixture of isomers) [R=H; R1=4-F—C6H4**; R2=4-Cl—C6H4]	9	0.00	
O=C1OC(=Cc2ccc(F)cc2)C(O)=C1c1ccc(F)cc1 (mixture of isomers) [R=H; R1=4-F—C6H4**; R2=4-F—C6H4]	9	0.00	
O=C1OC(=Cc2ccc(OC(F)(F)F)cc2)C(O)=C1c1ccc(F)cc1 (mixture of isomers) [R=H; R1=4-F—C6H4**; R2=4-OCF3—C6H4]	9	51.60	
O=C1OC(=Cc2cc(C(F)(F)F)ccc2F)C(O)=C1c1ccc(OC(F)(F)F)cc1 (mixture of isomers) [R=H; R1=4-OCF3—C6H4**; R2=2-F-5-CF3—C6H3]	9	29.50	
O=C1OC(=Cc2cc(Cl)cc(Cl)c2)C(O)=C1c1ccc(OC(F)(F)F)cc1 (mixture of isomers) [R=H; R1=4-OCF3—C6H4**; R2=3,5-diCl—C6H3]	9	33.40	

SMILES	Rating ([1]; dose 100 ppm)	Mortality [2] [%]	Rating ([1]; dose 150 ppm)
O=C1OC(=Cc2ccc(C(F)(F)F)c(F)c2)C(O)=C1c1ccc(OC(F)(F)F)cc1 (mixture of isomers) [R=H; R1=4-OCF3—C6H4**; R2=3-F-4-CF3—C6H3]	9	44.20	
O=C1OC(=Cc2ccc(OC(F)F)cc2)C(O)=C1c1ccc(OC(F)(F)F)cc1 (mixture of isomers) [R=H; R1=4-OCF3—C6H4**; R2=4-OCHF2—C6H4]	9	44.20	
O=C1OC(=Cc2ccc(Oc3ccccc3)cc2)C(O)=C1c1ccc(OC(F)(F)F)cc1 (mixture of isomers) [R=H; R1=4-OCF3—C6H4**; R2=4-phenoxy-C6H4]	0	0.00	
O=C1OC(=Cc2ccccn2)C(O)=C1c1ccc(OC(F)(F)F)cc1 (mixture of isomers) [R=H; R1=4-OCF3—C6H4**; R2=pyridine-2-yl]	0	0.00	
O=C1OC(=Cc2cccnc2)C(O)=C1c1ccc(OC(F)(F)F)cc1 (mixture of isomers) [R=H; R1=4-OCF3—C6H4**; R2=pyridine-3-yl]	0	0.00	
O=C1OC(=Cc2cccs2)C(O)=C1c1ccc(OC(F)(F)F)cc1 (mixture of isomers) [R=H; R1=4-OCF3—C6H4**; R2=thiophen-2-yl]	0	0.00	
O=C1OC(=Cc2ccc3ccccc3c2)C(O)=C1c1cccc2ccccc12 [R=H; R1=1-naphthyl; R2=2-naphthyl]		28.90	9
O=C1O/C(=C\c2ccc(-c3ccccc3)cc2)C(O)=C1c1cccc2ccccc12 [R=H; R1=1-naphthyl; R2=4-biphenyl]		18.50	9
O=C1O/C(=C\c2ccc(-c3ccccc3)cc2)C(O)=C1c1ccc(Cl)cc1Cl [R=H; R1=2,4-diCl—C6H3; R2=4-biphenyl]		24.50	9
O=C1O/C(=C\c2ccc(-c3ccccc3)cc2)C(O)=C1c1ccccc1C(F)(F)F [R=H; R1=2-CF3—C6H4; R2=4-biphenyl]		20.20	8
O=C1O/C(=C\c2cccc3ccccc23)C(O)=C1c1ccc2ccccc2c1 [R=H; R1=2-naphthyl; R2=1-naphthyl]		36.10	9
O=C1O/C(=C\c2ccc3ccccc3c2)C(O)=C1c1ccc2ccccc2c1 [R=H; R1=2-naphthyl; R2=2-naphthyl]		13.80	9
O=C1O/C(=C\c2ccc(-c3ccccc3)cc2)C(O)=C1c1ccc(Cl)c(Cl)c1 [R=H; R1=3,4-diCl—C6H3; R2=4-biphenyl]		23.00	9
O=C1O/C(=C\c2cccc3ccccc23)C(O)=C1c1cc(Cl)cc(Cl)c1 [R=H; R1=3,5-diCl—C6H3; R2=1-naphthyl]		0.00	9
O=C1O/C(=C\c2ccc3ccccc3c2)C(O)=C1c1cccc(C(F)(F)F)c1 [R=H; R1=3-CF3—C6H4; R2=2-naphthyl]		35.20	9
O=C1O/C(=C\c2cccc(C(F)(F)F)c2)C(O)=C1c1cccc(C(F)(F)F)c1 [R=H; R1=3-CF3—C6H4; R2=3-CF3—C6H4]		10.10	9
O=C1O/C(=C\c2ccc(Cl)cc2)C(O)=C1c1cccc(C(F)(F)F)c1 [R=H; R1=3-CF3—C6H4; R2=4-Cl—C6H4]	9	21.60	
COc1ccc(/C=C2\OC(=O)C(c3cccc(C(F)(F)F)c3)=C2O)cc1 [R=H; R1=3-CF3—C6H4; R2=4-OCH3—C6H4]		3.10	9
CC(=O)c1cccc(C2=C(O)C(=Cc3cccc4ccccc34)OC2=O)c1 [R=H; R1=3-COCH3—C6H4; R2=1-naphthyl]		10.70	8
O=C1OC(=Cc2ccc(-c3ccccc3)cc2)C(O)=C1c1cccc(Cl)c1 [R=H; R1=3-Cl—C6H4; R2=4-biphenyl]		19.40	9
N#Cc1ccc(C2=C(O)C(=Cc3ccc(-c4ccc(C#N)cc4)cc3)OC2=O)cc1 [R=H; R1=4-CN—C6H4*; R2=4-(4′-CN-biphenyl)]		88.07	9
N#Cc1ccc(C2=C(O)C(=Cc3ccccc3C(F)(F)F)OC2=O)cc1 [R=H; R1=4-CN—C6H4; R2=2-CF3—C6H4]		69.78	7
